Assay type in all cases: cell-based
Test [1] concerns microfilariae of Dirofilaria immitis. Description: Dirofilaria immitis, Microfilaria (DiMF) In vitro Assay. The following applies: 72 h, read-out: DiMF Minimum Effective Dose (MED), approximately 72 hours incubation, microfilariae assessed for survival or paralysis.
Test [2] concerns 4th stage larvae (L4) of Dirofilaria immitis. Nature of the test: Dirofilaria immitis, L4 Stage (DiL4) In Vitro Assay. To be noted: Dirofilaria immitis, 72 h, read-out: DiL4 Minimum Effective Dose (MED), approximately 72 hours incubation; L4 larvae assessed for survival or paralysis.
Test [3] has as its system third stage larvae of Haemonchus contortus. Nature of the test: Haemonchus contortus L3 (HcL3) Assay. To be noted: 96 h, read-out: HcL3 Minimum Effective Dose (MED).

Each structure is given as a SMILES string. Some results are limits rather than exact numbers.

As to `Cc1cnn(Cc2ccc(C[C@H]3OC(=O)[C@H](CC(C)C)N(C)C(=O)[C@@H](C)OC(=O)[C@H](CC(C)C)N(C)C(=O)[C@@H](Cc4ccc(Cn5cc(I)cn5)cc4)OC(=O)[C@H](CC(C)C)N(C)C(=O)[C@@H](C)OC(=O)[C@H](CC(C)C)N(C)C3=O)cc2)c1` [Example 1a-20, (3S,6R,9S,12R,15S,18R,21S,24R)-6-(4-((4-iodo-1H-pyrazol-1-yl)methyl)benzyl)-3,9,15,21-tetraisobutyl-4,10,12,16,22,24-hexamethyl-18-(4-((4-methyl-1H-pyrazol-1-yl)methyl)benzyl)-1,7,13,19-tetraoxa-4,10,16,22-tetraazacyclotetracosan-2,5,8,11,14,17,20,23-octaone], the minimal effective concentration fell in the range of 0.001 to 0.01 µM in test [1], 0.0001 to 0.001 µM in test [2] and 1 to 10 µM in test [3].

Consider `CC(C)C[C@H]1C(=O)O[C@H](Cc2ccc(Cn3nc(C(F)F)cc3C(F)F)cc2)C(=O)N(C)[C@@H](CC(C)C)C(=O)O[C@H](C)C(=O)N(C)[C@@H](CC(C)C)C(=O)O[C@H](Cc2ccc(Cn3nc(C(F)F)cc3C(F)F)cc2)C(=O)N(C)[C@@H](CC(C)C)C(=O)O[C@H](C)C(=O)N1C` [Example 1b-89, (3S,6R,9S,12R,15S,18R,21S,24R)-6,18-bis(4-((3,5-bis(difluoromethyl)-1H-pyrazol-1-yl)methyl)benzyl)-3,9,15,21-tetraisobutyl-4,10,12,16,22,24-hexamethyl-1,7,13,19-tetraoxa-4,10,16,22-tetraazacyclotetracosan-2,5,8,11,14,17,20,23-octaone], for which the minimal effective concentration is 0.001 to 0.01 µM in test [1], ≤ 0.0001 µM in test [2] and ≤ 1 µM in test [3].

On to `CC#Cc1cnn(Cc2ccc(C[C@H]3OC(=O)[C@H](CC(C)C)N(C)C(=O)[C@@H](C)OC(=O)[C@H](CC(C)C)N(C)C(=O)[C@@H](Cc4ccc(Cn5cc(C#CC)cn5)cc4)OC(=O)[C@H](CC(C)C)N(C)C(=O)[C@@H](C)OC(=O)[C@H](CC(C)C)N(C)C3=O)cc2)c1` [Example 1b-118, (3S,6R,9S,12R,15S,18R,21S,24R)-3,9,15,21-tetraisobutyl-4,6,10,16,18,22-hexamethyl-12,24-bis(4-((4-(prop-1-yn-1-yl)-1H-pyrazol-1-yl)methyl)benzyl)-1,7,13,19-tetraoxa-4,10,16,22-tetraazacyclotetracosan-2,5,8,11,14,17,20,23-octaone], for which the results for the minimal effective concentration in test [1], in test [2] and in test [3] were 0.001 to 0.01 µM, 0.0001 to 0.001 µM and 1 to 10 µM, respectively.

On to `CC(C)C[C@H]1C(=O)O[C@H](Cc2ccc(Cn3ccnc3Br)cc2)C(=O)N(C)[C@@H](CC(C)C)C(=O)O[C@H](C)C(=O)N(C)[C@@H](CC(C)C)C(=O)O[C@H](Cc2ccccc2)C(=O)N(C)[C@@H](CC(C)C)C(=O)O[C@H](C)C(=O)N1C` [Example 8-3, (3S,6R,9S,12R,15S,18R,21S,24R)-6-benzyl-18-[[4-[(2-bromoimidazol-1-yl)methyl]phenyl]methyl]-3,9,15,21-tetraisobutyl-4,10,12,16,22,24-hexamethyl-1,7,13,19-tetraoxa-4,10,16,22-tetrazacyclotetracosane-2,5,8,11,14,17,20,23-octaone], for which the minimal effective concentration in test [1] was in the range of 0.001 to 0.01 µM; in test [2], 0.0001 to 0.001 µM; in test [3], 1 to 10 µM.

For the molecule `CC(C)C[C@H]1C(=O)O[C@H](Cc2ccc(Cn3cnc(Br)c3)cc2)C(=O)N(C)[C@@H](CC(C)C)C(=O)O[C@H](C)C(=O)N(C)[C@@H](CC(C)C)C(=O)O[C@H](Cc2ccc(Cn3cnc(Br)c3)cc2)C(=O)N(C)[C@@H](CC(C)C)C(=O)O[C@H](C)C(=O)N1C` [Example 6-12, (3S,6R,9S,12R,15S,18R,21S,24R)-6,18-bis(4-((4-bromo-1H-imidazol-1-yl)methyl)benzyl)-3,9,15,21-tetraisobutyl-4,10,12,16,22,24-hexamethyl-1,7,13,19-tetraoxa-4,10,16,22-tetraazacyclotetracosan-2,5,8,11,14,17,20,23-octaone], the figures for the minimal effective concentration in test [1], in test [2] and in test [3] were 0.001 to 0.01 µM, ≤ 0.0001 µM and 1 to 10 µM, respectively.

In the case of `CC(C)C[C@H]1C(=O)O[C@H](Cc2ccc(Cn3cc(Br)cn3)cc2)C(=O)N(C)[C@@H](CC(C)C)C(=O)O[C@H](C)C(=O)N(C)[C@@H](CC(C)C)C(=O)O[C@H](Cc2ccccc2)C(=O)N(C)[C@@H](CC(C)C)C(=O)O[C@H](C)C(=O)N1C` [Example 2-22, (3S,6R,9S,12R,15S,18R,21S,24R)-6-benzyl-18-(4-((4-bromo-1H-pyrazol-1-yl)methyl)benzyl)-3,9,15,21-tetraisobutyl-4,10,12,16,22,24-hexamethyl-1,7,13,19-tetraoxa-4,10,16,22-tetraazacyclotetracosan-2,5,8,11,14,17,20,23-octaone], the values for the minimal effective concentration in test [1], in test [2] and in test [3] were 0.001 to 0.01 µM, 0.0001 to 0.001 µM and 1 to 10 µM, respectively.

As for `CC(C)C[C@H]1C(=O)O[C@H](Cc2ccc(Cn3nccc3C3(C)COC3)cc2)C(=O)N(C)[C@@H](CC(C)C)C(=O)O[C@H](C)C(=O)N(C)[C@@H](CC(C)C)C(=O)O[C@H](Cc2ccc(Cn3nccc3C3(C)COC3)cc2)C(=O)N(C)[C@@H](CC(C)C)C(=O)O[C@H](C)C(=O)N1C` [Example 1b-221, (3S,6R,9S,12R,15S,18R,21S,24R)-3,9,15,21-tetraisobutyl-4,6,10,16,18,22-hexamethyl-12,24-bis(4-((5-(3-methyloxetan-3-yl)-1H-pyrazol-1-yl)methyl)benzyl)-1,7,13,19-tetraoxa-4,10,16,22-tetraazacyclotetracosan-2,5,8,11,14,17,20,23-octaone], the minimal effective concentration in test [1] is 0.001 to 0.01 µM; in test [2], 0.001 to 0.01 µM; in test [3], 1 to 10 µM.

As for `CCC(C)c1ccnn1Cc1ccc(C[C@H]2OC(=O)[C@H](CC(C)C)N(C)C(=O)[C@@H](C)OC(=O)[C@H](CC(C)C)N(C)C(=O)[C@@H](Cc3ccc(Cn4nccc4C(C)CC)cc3)OC(=O)[C@H](CC(C)C)N(C)C(=O)[C@@H](C)OC(=O)[C@H](CC(C)C)N(C)C2=O)cc1` (stereo partly drawn) [Example 1b-210, (3S,6R,9S,12R,15S,18R,21S,24R)-6,18-bis(4-((5-(sec-butyl)-1H-pyrazol-1-yl)methyl)benzyl)-3,9,15,21-tetraisobutyl-4,10,12,16,22,24-hexamethyl-1,7,13,19-tetraoxa-4,10,16,22-tetraazacyclotetracosan-2,5,8,11,14,17,20,23-octaone], the results for the minimal effective concentration in test [1], in test [2] and in test [3] were 0.01 to 0.1 µM, 0.0001 to 0.001 µM and 1 to 10 µM, respectively.

Turning to `COC(C)(C)c1ccnn1Cc1ccc(C[C@H]2OC(=O)[C@H](CC(C)C)N(C)C(=O)[C@@H](C)OC(=O)[C@H](CC(C)C)N(C)C(=O)[C@@H](Cc3ccc(Cn4nccc4C(C)(C)OC)cc3)OC(=O)[C@H](CC(C)C)N(C)C(=O)[C@@H](C)OC(=O)[C@H](CC(C)C)N(C)C2=O)cc1` [Example 1b-220, (3S,6R,9S,12R,15S,18R,21S,24R)-3,9,15,21-tetraisobutyl-6,18-bis(4-((5-(2-methoxypropan-2-yl)-1H-pyrazol-1-yl)methyl)benzyl)-4,10,12,16,22,24-hexamethyl-1,7,13,19-tetraoxa-4,10,16,22-tetraazacyclotetracosan-2,5,8,11,14,17,20,23-octaone], the minimal effective concentration in test [1] lay within 0.001 to 0.01 µM; in test [2], 0.001 to 0.01 µM; in test [3] it was 10 to 100 µM.

On to `CC(C)Cc1ncnn1Cc1ccc(C[C@H]2OC(=O)[C@H](CC(C)C)N(C)C(=O)[C@@H](C)OC(=O)[C@H](CC(C)C)N(C)C(=O)[C@@H](Cc3ccc(Cn4ncnc4CC(C)C)cc3)OC(=O)[C@H](CC(C)C)N(C)C(=O)[C@@H](C)OC(=O)[C@H](CC(C)C)N(C)C2=O)cc1` [Example 9-53, (3S,6R,9S,12R,15S,18R,21S,24R)-3,9,15,21-tetraisobutyl-6,18-bis(4-((5-isobutyl-1H-1,2,4-triazol-1-yl)methyl)benzyl)-4,10,12,16,22,24-hexamethyl-1,7,13,19-tetraoxa-4,10,16,22-tetraazacyclotetracosan-2,5,8,11,14,17,20,23-octaone], for which the figures for the minimal effective concentration in test [1], in test [2] and in test [3] were 0.001 to 0.01 µM, 0.001 to 0.01 µM and 1 to 10 µM, respectively.

With `CC(C)C[C@H]1C(=O)O[C@H](Cc2ccc(Cn3nccc3C(C)C)cc2)C(=O)N(C)[C@@H](CC(C)C)C(=O)O[C@H](C)C(=O)N(C)[C@@H](CC(C)C)C(=O)O[C@H](Cc2ccc(Cn3nccc3C(C)C)cc2)C(=O)N(C)[C@@H](CC(C)C)C(=O)O[C@H](C)C(=O)N1C` [Example 1b-126, (3S,6R,9S,12R,15S,18R,21S,24R)-3,9,15,21-tetraisobutyl-6,18-bis(4-((5-isopropyl-1H-pyrazol-1-yl)methyl)benzyl)-4,10,12,16,22,24-hexamethyl-1,7,13,19-tetraoxa-4,10,16,22-tetraazacyclotetracosan-2,5,8,11,14,17,20,23-octaone], the minimal effective concentration in test [1] fell in the range of 0.001 to 0.01 µM; in test [2], 0.0001 to 0.001 µM; in test [3], 1 to 10 µM.

As to `CC(C)C[C@H]1C(=O)O[C@H](Cc2ccc(Cn3cc(Cl)cn3)cc2)C(=O)N(C)[C@@H](CC(C)C)C(=O)O[C@H](C)C(=O)N(C)[C@@H](CC(C)C)C(=O)O[C@H](Cc2ccc(Cn3cc(Cl)cn3)cc2)C(=O)N(C)[C@@H](CC(C)C)C(=O)O[C@H](C)C(=O)N1C` [Example 1b-35, (3S,6R,9S,12R,15S,18R,21S,24R)-6,18-bis(4-((4-chloro-1H-pyrazol-1-yl)methyl)benzyl)-3,9,15,21-tetraisobutyl-4,10,12,16,22,24-hexamethyl-1,7,13,19-tetraoxa-4,10,16,22-tetraazacyclotetracosan-2,5,8,11,14,17,20,23-octaone], the minimal effective concentration was 0.001 to 0.01 µM in test [1], 0.0001 to 0.001 µM in test [2] and 10 to 100 µM in test [3].

For the origin of these results see US11331369B2, “Endoparasitic depsipeptides” (Zoetis Services LLC, priority 2017, dated 2022).
